Measurements as given in publication PMC10533516, “The Dictyostelium discoideum FimA protein, unlike yeast and plant fimbrins, is regulated by calcium similar to mammalian plastins” (Scientific Reports, 2023).

Assays:
FimA-EF-N81ter = target: T1, FimA-EF-N81ter (Dictyostelium discoideum, UniProt P54680); assay: 1H, […]-HSQC NMR titration; type: binding
T1 construct: EF-hand headpiece domain truncated before switch helix H5 (N81ter), residues 1-80; N-terminal 6His-tag with TEV site, tag cleaved; E. coli BL21(DE3)
T1 sequence (P54680 1-80): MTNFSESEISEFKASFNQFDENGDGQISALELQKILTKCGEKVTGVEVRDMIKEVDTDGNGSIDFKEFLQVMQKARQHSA

FimA-EF = target: T2, FimA-EF (Dictyostelium discoideum, UniProt P54680); assay: 1H, […]-HSQC NMR titration (chemical shift changes); type: binding; conditions: 25 °C, pH 7.0; Ca2+-bound; site of switch helix H5
T2 construct: EF-hand headpiece domain with switch helix H5, residues 1-93; pET15b, N-terminal 6His-tag with TEV site, tag cleaved; E. coli BL21(DE3)
T2 sequence (P54680 1-93): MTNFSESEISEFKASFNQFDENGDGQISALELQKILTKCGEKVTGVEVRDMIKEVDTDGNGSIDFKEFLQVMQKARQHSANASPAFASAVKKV

[1] = target: L-plastin H5 peptide H5 (Homo sapiens) (UniProt P13796); conditions: cited from earlier work
[2] = target: T3, FimA-EF-N81ter (EF-hand domain of the Dictyostelium discoideum FimA headpiece, residues 1-80, lacking the H5 … (Dictyostelium discoideum, UniProt P54680 1-80)); assay: NMR titration; 15N-labelled FimA-EF-N81ter titrated with the H5 peptide, 1H,15N-HSQC, chemical shift changes fitted, fast exchange; 25 °C, 100 mM KCl, 20 mM Bis-Tris pH 7.0, 10 mM DTT; conditions: both partners purified
T3 construct: FimA (fimbrin) of Dictyostelium discoideum, UniProtKB P54680, headpiece truncated by a stop codon at N81: residues 1-80, omits the entire H5 region; Made by site-directed mutagenesis of the synthetic FimA 1-93 gene in pET15b (NdeI/XhoI) with an N-terminal 6His-tag and a TEV site; The methods say the last 12 amino acids are deleted, but 1-80 of 1-93 removes 13; also called …
T3 sequence (looked up): T1 sequence (P54680 1-80)

With `NCCCCCCNS(=O)(=O)c1cccc2c(Cl)cccc12` [W7] the Kd (FimA-EF-N81ter) was 3.8 µM and the “1H,15N-HSQC NMR titration (chemical shift changes)” value (FimA-EF) was “Both TFP and W7 caused significant chemical shift changes in the HSQC spectrum of FimA-EF”.

In the case of “L-plastin EF-hand domain (from UniProt P13796)”, the Kd [1] is listed as 3.5 µM.

With `CN1CCN(CCCN2c3ccccc3Sc3ccc(C(F)(F)F)cc32)CC1` [TFP] the Kd (FimA-EF-N81ter) was 1.5 µM and the “1H,15N-HSQC NMR titration (chemical shift changes)” value (FimA-EF) was “Both TFP and W7 caused significant chemical shift changes in the HSQC spectrum of FimA-EF”.

B1: H5 peptide (14-residue synthetic peptide encompassing the H5 / putative regulatory switch-helix region of FimA) (peptide)
peptide: Ac-SANASPAFASAVKK-NH2
notes: Stretch of FimA of Dictyostelium discoideum (UniProtKB P54680) encompassing the putative regulatory domain (H5); Limits worked out from the printed positions N81, P84 and F86; also called synthetic H5 peptide; source: synthetic peptide, obtained from Genscript (purity over 95%)
B1 gave a Kd [2] of 300 µM.
